Source: article PMC10508264, “Exploring the antioxidant, antimicrobial, cytotoxic and biothermodynamic properties of novel morpholine derivative bioactive Mn(II), Co(II) and Ni(II) complexes – combined experimental and theoretical measurements towards DNA/BSA/SARS-CoV-2 3CL^Pro” (RSC Medicinal Chemistry, 2023)
Values joined by “and” are separate entries in the source; they are usually repeats but may differ in a detail not shown here. Equal entries are not always repeated.

What was measured:
[1] = tested on: CT-DNA; test: DNA binding by UV-vis absorption titration; details: for % H (hypochromism): Tris-HCl pH 7.4, 25 °C; for Kb, BH-I (Benesi–Hildebrand method I) / Kb, BH-II (Benesi–Hildebrand method II) / Kb, SK-I (Sakthi–Krause method I) / Kb, SK-II (Sakthi–Krause method II) / Kb, WS-I (Wolfe–Shimmer method I) / Kb, WS-II (Wolfe–Shimmer method II): pH 7.4, 25 °C
Method: The DNA-binding experiment was conducted with an electronic absorption spectrophotometer by raising the DNA concentration from zero to 50 μM to the given concentration of all samples (50 μM) in Tris-HCl buffer (5 mM Tris-HCl/50 mM NaCl) with a pH of 7.4 at 25 °C.[13,23–26]
Most medications involve intercalation and groove binding via GC (guanine/cytosine)-rich and AT (adenine/thymine)-rich domains, respectively. The interactions were determined experimentally by electronic absorption spectrum titration. Moreover, intercalating binding is indicated by bathochromic and hypochromic shifts in the absorption spectra, whereas groove binding of the complexes with DNA is indicated by hyperchromic shifts in the titration curve.[61] Generally, four kinds of non-covalent engagements that can be absolutely critical in the interaction of substances with DNA are most frequently illustrated in the literature: (i) involves a negatively charged phosphate fragment as a result of electrostatic interaction; (ii) influences weak van der Waals force attraction/H-bonding; (iii) interaction of a functional moiety with the grooves (major/minor) of the double-stranded DNA as a result of a molecule sticking due to general attraction, or as a result of water or H-bonding expulsion, etc.; (iv) the stacked base pairs of natural DNA are intercalated by hydrophobic forces. Nevertheless, substances are engaged in the reaction because of […] preferred N-7 position and adenine's N-3 location in DNA. The DNA base pairing may also be prevented due to miscoding. All complexes (1–3), including free ligand (HL), were measured both when DNA was present and when it was absent using ultraviolet–visible spectrophotometric absorption titrations in buffer solution with a pH of 7.4 at 25 °C (Fig. 3). In this case, all substances were exposed to two prominent electronic absorption bands of about 260 nm and 335–343 nm, consequent to the π–π* transitions of the phenyl chromophore and MLCT, respectively. While the amount of DNA in each compound rises, the interaction of the chemical substance with DNA base pairs generates noticeable alterations in the strength and wavelength of the intra-ligand charge transfer bands. […] Using Wolfe–Shimmer eqn (1) and (2), Benesi–Hildebrand eqn (3) and (4) and Sakthi–Krause eqn (5) and (6), the observed overall Kb values for all samples were in the following sequence: (2) > (3) > (1) > (HL). […] It is concluded that the co-planarity of the morpholine-linked ligand and complexation of the 2,2′-bipyridine aromatic system with the metal centre promote the ability of the complex to infiltrate DNA base pairs smoothly. Large aromatic systems may also assist the complex to deeply penetrate the core of the phosphate backbone, and those substances may permit the complex to freely penetrate deep into the DNA base pairs. […] The Wolfe–Shimmer eqn (1) and (2),[62] Benesi–Hildebrand eqn (3) and (4),[63] and Sakthi–Krause eqn (5) and (6) were applied to evaluate the Kb results for all samples, which were obtained by modification of the Lineweaver–Burk and Stern–Volmer equations (Table 1).
The Kb values were measured using the Wolfe–Shimmer eqn (1) and (2) from the linear regression plots of [DNA]/(εa − εf) vs. [DNA] M^−1 for method I and (εb − εf)/(εa − εf) vs. 1/[DNA] M^−1 for method II, respectively (Fig. S15 ^†). The Benesi–Hildebrand binding constant (Kb) values were measured using eqn (3) and (4) from the linear regression plots of [1/(Ax − A0)] vs. {1/[DNA]} M^−1 for method I and [(Amax − A0)/(Ax − A0)] vs. {1/[DNA]} M^−1 for method II, respectively (Fig. S16 ^†). The Kb values were estimated using Sakthi–Krause eqn (5) and (6) from the linear regression plots of [A/(A0 − A)] vs. {1/[DNA]} M^−1 for method I (Fig. S17 ^†) and {1/[DNA]} vs. log[A/(A0 − A)] M^−1 for method II (Fig. S18 ^†). In addition, A0 and A represent the absorbance intensity values in the absence and presence of [DNA], respectively. […]

[2] = DPPH radical scavenging assay; type: biochemical; details: for % Inhibition, DPPH: 517 nm
[3] = tested on: A549; test: MTT cell viability assay, A549; type: cell-based, human; details: A549, 72 h of exposure

Compound | % H (hypochromism) [1] [%] | Kb, BH-I (Benesi–Hildebrand method I) [1] [M⁻¹] | Kb, BH-II (Benesi–Hildebrand method II) [1] [M⁻¹] | Kb, SK-I (Sakthi–Krause method I) [1] [M⁻¹] | Kb, SK-II (Sakthi–Krause method II) [1] [M⁻¹] | Kb, WS-I (Wolfe–Shimmer method I) [1] [M⁻¹] | Kb, WS-II (Wolfe–Shimmer method II) [1] [M⁻¹] | % Inhibition, DPPH ([2]; 40 µM) [%] | % Inhibition, DPPH ([2]; 80 µM) [%] | % Inhibition, DPPH ([2]; 120 µM) [%] | % Inhibition, DPPH ([2]; 160 µM) [%] | % Inhibition, DPPH ([2]; 200 µM) [%] | % Inhibition, DPPH ([2]; 240 µM) | IC50 [3] [µM] | IC50 [2] [µM] | IC50 ([3]; Homo sapiens) [µM]
[Mn+2].[O-]c1ccccc1N=Cc1ccc(N2CCOCC2)cc1.[O-]c1ccccc1N=Cc1ccc(N2CCOCC2)cc1.c1ccc(-c2ccccn2)nc1 [(1)] | 40.61 | 9942 | 21067 | 11049 | 20389 | 18195 | 20826 | 11.16 | 18.62 | 30.41 | 37.32 | 42.47 | 62.23% and 58.05% | 37.6 ± 1.9 |  | 
[Co+2].[O-]c1ccccc1N=Cc1ccc(N2CCOCC2)cc1.[O-]c1ccccc1N=Cc1ccc(N2CCOCC2)cc1.c1ccc(-c2ccccn2)nc1 [(2)] | 36.16 | 10468 | 21524 | 14965 | 22526 | 18806 | 21379 | 14.20 | 26.76 | 31.64 | 45.67 | 52.54 | 62.23% | 34.2 ± 1.7 | 200 | 
[Ni+2].[O-]c1ccccc1N=Cc1ccc(N2CCOCC2)cc1.[O-]c1ccccc1N=Cc1ccc(N2CCOCC2)cc1.c1ccc(-c2ccccn2)nc1 [(3)] | 43.46 | 18212 | 20938 | 13001 | 20417 | 18207 | 21275 | 13.08 | 24.74 | 30.86 | 41.06 | 49.83 | 60.02% | 33.5 ± 1.7 |  | 
Oc1ccccc1N=Cc1ccc(N2CCOCC2)cc1 [(HL), 2-(4-morpholinobenzylideneamino)phenol] | 37.13 | 6000 | 19515 | 8775 | 17216 | 15169 | 15480 | 09.45 | 15.21 | 26.36 | 34.56 | 39.41 | 52.45% |  |  | 126 ± 6.3
